Results published in US20240238269A1.
Values after ≈ are worked out from the molar mass of the structure shown. Read-outs that look alike come from different tables or passages of the source.

How the values were obtained:
[1] = tested on: Novel coronavirus (SARS-COV-2); assay: Antiviral activity against Novel Coronavirus; type: cell-based
HPV18 [2] = assay: microbe, parasite or virus in culture; details: human papillomavirus 18, C-33-A
HPV11 [3] = assay: microbe, parasite or virus in culture; details: human papillomavirus 11, C-33-A
[4] = tested on: Middle East Respiratory Syndrome Coronavirus (MERS-COV); assay: microbe, parasite or virus in culture; type: cell-based; details: Vero 76
Herpes Simplex Virus 1 = assay: Antiviral activity against Herpes Simplex Virus 1; type: cell-based
in vitro [5] = details: human
in vitro [6] = details: human; remark: listed apart in the source
[7] = tested on: human papillomavirus (HPV); assay: Antiviral activity against human papillomavirus (HPV), overall conclusion; type: cell-based
Procedure: When the SI50 value>10, the compound was determined to be active against the virus.

Tacaribe Virus (TCRV) = assay: microbe, parasite or virus in culture; type: cell-based
other viruses = assay: Antiviral activity against other (non-HPV) viruses, overall conclusion; type: cell-based
HPV18 [8] = details: Human Papillomavirus 18 KC470230.1, C-33 A
HPV6 = HPV6 transient transfection reporter plasmid replication assay; details: for EC50 / EC90: Alphapapillomavirus 10, C-33-A
Huh7 = details: human
Influenza A H1N1 = assay: Antiviral activity against Influenza A H1N1; type: cell-based
Dengue Virus 2 = assay: Antiviral activity against Dengue Virus 2; type: cell-based
Herpes Simplex Virus 2 = assay: Antiviral activity against Herpes Simplex Virus 2; type: cell-based
[9] = tested on: Human Coronavirus (α) 229E; assay: Antiviral activity against Human Coronavirus (α); type: cell-based
in vitro [10] = details: African green monkey
[11] = tested on: Human Coronavirus (β) OC43; assay: Antiviral activity against Human Coronavirus (β); type: cell-based
HPV11 [12] = details: Human Papillomavirus 11 HE611260.1, C-33 A
HPV16 [13] = details: Human Papillomavirus 16 KP212151.1, C-33 A
HPV16 [14] = assay: microbe, parasite or virus in culture; details: Human papillomavirus 16, C-33-A
[15] = tested on: Rift Valley Fever Virus (RVFV); assay: microbe, parasite or virus in culture; type: cell-based
[16] = tested on: Chikungunya virus (CHIKV); assay: Antiviral activity against Chikungunya Virus; type: cell-based
Varicella-zoster Virus = assay: Antiviral activity against Varicella-zoster Virus; type: cell-based
in vitro [17] = details: human; remark: listed apart in the source
in vitro [18] = details: dog
[19] = Human Papillomavirus 6 FR751330.1, C-33 A
[20] = Human Papillomavirus 16 KP212151.1, C-33 A, 0.001-250 μM
[21] = Human Papillomavirus 16 KP212151.1, C-33 A, 0.048-150 μM
[22] = HPV16 strain KP212151.1, C-33 A, concentration range 0.001-250 μM

**Q.** Which “SI50 (CC50/EC50)” value [1] does the source give for `O=[N+]([O-])c1ccc(O)c2ncccc12` here?
**A.** 3.1

**Q.** What about the EC50 ([1]; Severe acute respiratory syndrome coronavirus 2, Vero 76) of the same molecule?
**A.** 0.32 µg/mL (≈ 1.68 µM)

**Q.** And the EC50 (HPV18 [2])?
**A.** 1010 nM

**Q.** What about the EC90 (HPV18 [2]) of the same molecule?
**A.** 3990 nM

**Q.** And the EC50 (HPV11 [3])?
**A.** 1040 nM

**Q.** And the EC90 (HPV11 [3])?
**A.** 2990 nM

**Q.** And the “SI50 (CC50/EC50)” value ([4]; MERS Coronavirus EMC)?
**A.** 0

**Q.** What about the EC50 ([4]; Middle East respiratory syndrome-related coronavirus) of the same molecule?
**A.** > 0.32 µg/mL

**Q.** And the “SI50 (CC50/EC50)” value (Herpes Simplex Virus 1)?
**A.** <3.0

**Q.** And the EC50 (Herpes Simplex Virus 1; Human alphaherpesvirus 1)?
**A.** > 1200 nM

**Q.** And the CC50 (in vitro [5])?
**A.** 0.42 µg/mL (≈ 2.21 µM)

**Q.** What about the CC50 at 48 h (in vitro [6]) of the same molecule?
**A.** 55500 nM

**Q.** And the “antiviral activity compared with the positive control drug” value ([7]; HPV, Tables 1 and 2)?
**A.** better than that of the positive control drug

**Q.** What about the “inhibitory activity against HPV” value ([7]; active when SI50 value>10) of the same molecule?
**A.** specific inhibitory activity against HPV

**Q.** What about the EC50 (Tacaribe Virus (TCRV); Mammarenavirus tacaribeense, Vero) of the same molecule?
**A.** < 0.1 µg/mL

**Q.** What about the “SI50 (CC50/EC50)” value (Tacaribe Virus (TCRV); Tacaribe Virus TRVL 11573, Vero) of the same molecule?
**A.** 1

**Q.** What about the “inhibitory activity against other viruses” value (other viruses) of the same molecule?
**A.** not observed against other viruses

**Q.** What about the “SI50 (CC50/EC50)” value (HPV18 [8]) of the same molecule?
**A.** 64

**Q.** And the SI90 (HPV18 [8])?
**A.** 16

**Q.** What about the EC50 (HPV6) of the same molecule?
**A.** 860 nM

**Q.** And the EC90 (HPV6)?
**A.** 5410 nM

**Q.** What about the “SI50 (CC50/EC50)” value (HPV6; [19]) of the same molecule?
**A.** 55

**Q.** What about the SI90 (HPV6; [19]) of the same molecule?
**A.** 9

**Q.** What about the CC50 (Huh7) of the same molecule?
**A.** 0.4 µg/mL (≈ 2.1 µM)

**Q.** What about the “SI50 (CC50/EC50)” value (Influenza A H1N1) of the same molecule?
**A.** 3.8

**Q.** What about the EC50 (Influenza A H1N1; Influenza A virus, H1N1, MDCK) of the same molecule?
**A.** 0.32 µg/mL (≈ 1.68 µM)

**Q.** And the “SI50 (CC50/EC50)” value (Dengue Virus 2)?
**A.** 1.3

**Q.** What about the EC50 (Dengue Virus 2; Dengue virus, Huh-7) of the same molecule?
**A.** 0.32 µg/mL (≈ 1.68 µM)

**Q.** And the “SI50 (CC50/EC50)” value (Herpes Simplex Virus 2)?
**A.** <4

**Q.** And the EC50 (Herpes Simplex Virus 2; Human alphaherpesvirus 2)?
**A.** > 1200 nM

**Q.** What about the “SI50 (CC50/EC50)” value [9] of the same molecule?
**A.** 1.3

**Q.** What about the EC50 ([9]; unidentified human coronavirus, Huh-7) of the same molecule?
**A.** 0.32 µg/mL (≈ 1.68 µM)

**Q.** And the CC50 (in vitro [10])?
**A.** < 0.1 µg/mL

**Q.** And the “SI50 (CC50/EC50)” value [11]?
**A.** 0

**Q.** What about the EC50 ([11]; unidentified human coronavirus, OC43) of the same molecule?
**A.** > 0.37 µg/mL

**Q.** What about the “SI50 (CC50/EC50)” value (HPV11 [12]) of the same molecule?
**A.** 53

**Q.** What about the SI90 (HPV11 [12]) of the same molecule?
**A.** 19

**Q.** What about the “SI50 (CC50/EC50)” value (HPV16 [13]; 0.001-250 μM) of the same molecule?
**A.** 297

**Q.** And the SI90 (HPV16 [13]; 0.001-250 μM)?
**A.** 143

**Q.** What about the “SI50 (CC50/EC50)” value (HPV16 [13]; 0.048-150 μM) of the same molecule?
**A.** 23

**Q.** What about the SI90 (HPV16 [13]; 0.048-150 μM) of the same molecule?
**A.** 13

**Q.** And the EC50 (HPV16 [14]; [20])?
**A.** 260 nM

**Q.** And the EC90 (HPV16 [14]; [20])?
**A.** 540 nM

**Q.** And the EC50 (HPV16 [14]; [21])?
**A.** 2820 nM

**Q.** And the EC90 (HPV16 [14]; [21])?
**A.** 5110 nM

**Q.** What about the “SI50 (CC50/EC50)” value ([15]; Rift Valley Fever Virus MP-12, Vero 76) of the same molecule?
**A.** 1

**Q.** And the EC50 ([15]; Rift Valley fever virus, Vero 76)?
**A.** > 0.16 µg/mL

**Q.** What about the “SI50 (CC50/EC50)” value [16] of the same molecule?
**A.** 0

**Q.** And the EC50 ([16]; Chikungunya virus, Vero 76)?
**A.** > 0.86 µg/mL

**Q.** And the “SI50 (CC50/EC50)” value (Varicella-zoster Virus)?
**A.** <3

**Q.** What about the EC50 (Varicella-zoster Virus; Human alphaherpesvirus 3) of the same molecule?
**A.** > 240 nM

**Q.** And the CC50 (in vitro [17])?
**A.** 0.37 µg/mL (≈ 1.95 µM)

**Q.** What about the CC50 (in vitro [18]) of the same molecule?
**A.** 1.2 µg/mL (≈ 6.31 µM)

**Q.** For `Nc1nc2c(ncn2CCOCP(=O)(O)O)c(=O)[nH]1` [9-[2-(phosphonomethoxy)ethyl]guanine], which EC50 (HPV18 [2]) is on record?
**A.** 630 nM

**Q.** And the EC90 (HPV18 [2])?
**A.** > 150000 nM

**Q.** What about the EC50 (HPV11 [3]) of the same molecule?
**A.** 1030 nM

**Q.** And the EC90 (HPV11 [3])?
**A.** 4470 nM

**Q.** And the EC50 (HPV6)?
**A.** 560 nM

**Q.** And the EC90 (HPV6)?
**A.** 6350 nM

**Q.** And the EC50 (HPV16 [14]; [22])?
**A.** 280 nM

**Q.** What about the EC90 (HPV16 [14]; [22]) of the same molecule?
**A.** 2300 nM
